Data as given in PMC4177392, “Modulation of Cytochrome P450 Metabolism and Transport across Intestinal Epithelial Barrier by Ginger Biophenolics” (PLoS ONE, 2014).
Converted amounts (≈) assume the structure as drawn.

How the values were obtained:
CYP3A4 [1] = target: T1, CYP3A4 (Homo sapiens, UniProt P08684); experiment: CYP3A4 inhibition in human liver microsomes (substrate midazolam); format: in vitro ADME; conditions: human liver microsomes; substrate midazolam; gingerols and GE
Procedure: (§5) The highest concentration of GE used in the assay was 500 µg/mL equivalent. Stock solution for each CYP specific probe substrate was prepared in such a way that the final concentration is below the reported Km value.
(§6) A microsome-buffer-substrate mixture (MBS mix) was prepared for each isozyme by pre-mixing appropriate volumes of sodium phosphate buffer (pH 7.4, 50 mM), microsomes and substrate (Table S2 in File S1). 179 µL of MBS mix was transferred to 96-well reaction plate to which 1 µL of inhibitor stock solution was added to achieve the final target inhibitor concentration. The reaction plate was pre-incubated for 10 min at 37°C followed by reaction initiation by addition of 20 µL of 10 mM NADPH solution. The reaction plate was then incubated at 37°C for a predetermined time period following which it was quenched with 200 µL ACN for all CYPs and 200 µL 1% formic acid in water∶ACN (70∶30) for CYP1A2. In all cases, the final incubations after addition of substrate and inhibitor contained 0.1% DMSO (v/v), and the total organic solvent (DMSO and ACN) content was less than or equal to 1% (v/v). The details of final substrate concentration, incubation time, microsomal protein concentration in the reaction mixtures and the metabolites monitored for each isozyme tested are presented in Table S3 in File S1. The incubations were performed in singlet for individual gingerols and in duplicate for GE along with respective positive controls.
(§7) All samples were processed using protein precipitation method and analyzed by employing positive (for all CYPs) and negative (for CYP2A6, 2C19 and 2E1) ionization mode in liquid chromatography tandem mass spectrometry (API4000, Applied Biosystems, USA). The peak area ratio of analyte to IS was used for calculations. An isocratic method comprising 5 mM ammonium formate and ACN (40∶60) with 0.05% formic acid was used for elution. For CYP2C19, a mobile phase consisting of 5 mM ammonium formate and ACN (30∶70) was used. The analytes and internal standards were retained on BDS Hypersil Phenyl (150×4.6 mm, 5 µ, Thermo, USA) column. A flow rate of 0.5 mL/min (CYP1A2), 0.6 mL/min (CYP2C19, CYP2E1), 0.7 mL/min (CYP2C9), 0.8 mL/min (CYP2A6, CYP3A), 1.0 mL/min (CYP2B6, CYP2C8, CYP2D6) was maintained using Shimadzu Prominence solvent delivery system (LC-20AD). The mobile phase was degassed using degasser (DGU-20A3), samples were loaded into autosampler (SIL-HTc) and the column temperature was maintained at 40°C by column oven (CTO-20A). […]

CYP3A4 [2] = target: T1, CYP3A4; experiment: CYP3A4 inhibition in human liver microsomes (substrate testosterone); format: in vitro ADME
Procedure: as §5
(§8) A microsome-buffer-substrate mixture (MBS mix) was prepared for each isozyme by pre-mixing appropriate volumes of sodium phosphate buffer (pH 7.4, 50 mM), microsomes and substrate (Table S2 in File S1). 179 µL of MBS mix was transferred to 96-well reaction plate to which 1 µL of inhibitor stock solution was added to achieve the final target inhibitor concentration. The reaction plate was pre-incubated for 10 min at 37°C followed by reaction initiation by addition of 20 µL of 10 mM NADPH solution. The reaction plate was then incubated at 37°C for a predetermined time period following which it was quenched with 200 µL ACN for all CYPs and 200 µL 1% formic acid in water∶ACN (70∶30) for CYP1A2. In all cases, the final incubations after addition of substrate and inhibitor contained 0.1% DMSO (v/v), and the total organic solvent (DMSO and ACN) content was less than or equal to 1% (v/v). […] The incubations were performed in singlet for individual gingerols and in duplicate for GE along with respective positive controls.

CYP1A2 = target: T2, CYP1A2 (Homo sapiens, UniProt P05177); experiment: CYP1A2 inhibition in human liver microsomes (substrate phenacetin); format: in vitro ADME
T2 construct: […]; tissue XenoTechLLC H0610
T2 sequence (P05177 1-516): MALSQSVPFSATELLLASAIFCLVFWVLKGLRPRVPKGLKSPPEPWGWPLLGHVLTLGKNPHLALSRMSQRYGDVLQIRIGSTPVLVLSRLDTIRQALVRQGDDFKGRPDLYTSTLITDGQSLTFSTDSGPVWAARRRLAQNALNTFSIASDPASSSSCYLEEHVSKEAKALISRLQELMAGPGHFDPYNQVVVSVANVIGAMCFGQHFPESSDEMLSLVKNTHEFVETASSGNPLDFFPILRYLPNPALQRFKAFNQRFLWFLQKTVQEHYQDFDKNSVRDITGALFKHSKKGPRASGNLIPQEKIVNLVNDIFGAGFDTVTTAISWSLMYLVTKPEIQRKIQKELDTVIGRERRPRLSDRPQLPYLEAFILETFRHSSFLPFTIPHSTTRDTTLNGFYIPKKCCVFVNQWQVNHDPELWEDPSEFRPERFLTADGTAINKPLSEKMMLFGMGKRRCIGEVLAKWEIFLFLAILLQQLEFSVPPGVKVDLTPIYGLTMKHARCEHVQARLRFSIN
Procedure: as §5, §8

Caco-2 monolayer = experiment: Caco-2 permeability assay; conditions: 10 µM; for Intracellular (cell) accumulation: direction not given; for Papp: n = 3, mean ± SD
CYP2A6 = target: T3, CYP2A6 (Homo sapiens, UniProt P11509); experiment: CYP2A6 inhibition in human liver microsomes (substrate coumarin); format: in vitro ADME
T3 sequence (P11509 1-494): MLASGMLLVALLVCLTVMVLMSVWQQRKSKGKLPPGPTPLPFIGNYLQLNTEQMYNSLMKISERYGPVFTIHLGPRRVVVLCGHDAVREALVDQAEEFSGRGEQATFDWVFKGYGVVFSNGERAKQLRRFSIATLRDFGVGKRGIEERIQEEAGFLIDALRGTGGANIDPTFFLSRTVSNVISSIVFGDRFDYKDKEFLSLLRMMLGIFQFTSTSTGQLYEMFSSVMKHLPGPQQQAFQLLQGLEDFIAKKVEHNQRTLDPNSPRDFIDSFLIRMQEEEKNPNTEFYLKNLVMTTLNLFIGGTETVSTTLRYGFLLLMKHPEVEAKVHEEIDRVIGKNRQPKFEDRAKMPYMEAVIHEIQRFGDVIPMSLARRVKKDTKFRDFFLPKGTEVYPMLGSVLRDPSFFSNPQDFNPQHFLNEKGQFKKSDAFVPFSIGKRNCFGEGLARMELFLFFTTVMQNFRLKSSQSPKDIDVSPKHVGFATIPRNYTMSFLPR
Procedure: as §5, §8

CYP2E1 = CYP2E1 (Homo sapiens, UniProt P05181); experiment: CYP2E1 inhibition in human liver microsomes (substrate chlorzoxazone)
Procedure: (§1) Stock solution for each CYP specific probe substrate was prepared in such a way that the final concentration is below the reported Km value.
(§2) A microsome-buffer-substrate mixture (MBS mix) was prepared for each isozyme by pre-mixing appropriate volumes of sodium phosphate buffer (pH 7.4, 50 mM), microsomes and substrate (Table S2 in File S1). 179 µL of MBS mix was transferred to 96-well reaction plate to which 1 µL of inhibitor stock solution was added to achieve the final target inhibitor concentration. The reaction plate was pre-incubated for 10 min at 37°C followed by reaction initiation by addition of 20 µL of 10 mM NADPH solution. The reaction plate was then incubated at 37°C for a predetermined time period following which it was quenched with 200 µL ACN for all CYPs and 200 µL 1% formic acid in water∶ACN (70∶30) for CYP1A2. In all cases, the final incubations after addition of substrate and inhibitor contained 0.1% DMSO (v/v), and the total organic solvent (DMSO and ACN) content was less than or equal to 1% (v/v). The details of final substrate concentration, incubation time, microsomal protein concentration in the reaction mixtures and the metabolites monitored for each isozyme tested are presented in Table S3 in File S1.
(§3) All samples were processed using protein precipitation method and analyzed by employing positive (for all CYPs) and negative (for CYP2A6, 2C19 and 2E1) ionization mode in liquid chromatography tandem mass spectrometry (API4000, Applied Biosystems, USA). The peak area ratio of analyte to IS was used for calculations. An isocratic method comprising 5 mM ammonium formate and ACN (40∶60) with 0.05% formic acid was used for elution. For CYP2C19, a mobile phase consisting of 5 mM ammonium formate and ACN (30∶70) was used. The analytes and internal standards were retained on BDS Hypersil Phenyl (150×4.6 mm, 5 µ, Thermo, USA) column. A flow rate of 0.5 mL/min (CYP1A2), 0.6 mL/min (CYP2C19, CYP2E1), 0.7 mL/min (CYP2C9), 0.8 mL/min (CYP2A6, CYP3A), 1.0 mL/min (CYP2B6, CYP2C8, CYP2D6) was maintained using Shimadzu Prominence solvent delivery system (LC-20AD). The mobile phase was degassed using degasser (DGU-20A3), samples were loaded into autosampler (SIL-HTc) and the column temperature was maintained at 40°C by column oven (CTO-20A). Injection volumes for the samples were as follows: 5 µL (CYP1A2, CYP2D6, and CYP3A), 10 µL (CYP2B6, CYP2C8, and CYP2E1) and 20 µL (CYP2A6, CYP2C9, and CYP2C19). Data was collected and processed using Sciex Analyst 1.4.2. All the structures of inhibitors, substrates, metabolites and internal standards for each CYP enzyme are represented in Table S6 in File S1.
The IC50 value was estimated from the percentage reduction in CYP activity at eleven inhibitor concentrations with respect to control.
(§4) The data was analysed using 4PL (parameter logistic model), 3PLFB (bottom fixed), 3PLFT (top fixed), 2PL (top and bottom fixed), and the relative IC50 was with lowest standard error was further manipulation. Absolute IC50 was calculated from this relative IC50 by using the equation below: [drawing 3]

CYP2C8 = target: T4, CYP2C8 (Homo sapiens, UniProt P10632); experiment: CYP2C8 inhibition in human liver microsomes (substrate amodiaquine); format: in vitro ADME
T4 sequence (P10632 1-490): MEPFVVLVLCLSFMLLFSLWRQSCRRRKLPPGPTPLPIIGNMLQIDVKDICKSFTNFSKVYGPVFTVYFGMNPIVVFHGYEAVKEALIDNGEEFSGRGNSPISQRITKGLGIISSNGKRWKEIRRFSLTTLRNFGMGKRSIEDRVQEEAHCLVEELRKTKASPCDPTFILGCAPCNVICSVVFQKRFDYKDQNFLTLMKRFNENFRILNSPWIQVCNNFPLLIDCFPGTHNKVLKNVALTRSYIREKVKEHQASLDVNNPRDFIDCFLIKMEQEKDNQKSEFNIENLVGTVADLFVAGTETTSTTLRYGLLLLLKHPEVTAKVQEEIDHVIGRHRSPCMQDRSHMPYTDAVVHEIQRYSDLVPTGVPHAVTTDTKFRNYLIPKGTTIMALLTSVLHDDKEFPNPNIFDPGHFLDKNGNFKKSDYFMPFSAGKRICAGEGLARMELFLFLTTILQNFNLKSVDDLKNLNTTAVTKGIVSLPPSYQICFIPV
Procedure: as §5, §8

CYP2D6 = CYP2D6 (Homo sapiens, UniProt P10635); experiment: CYP2D6 inhibition in human liver microsomes (substrate dextromethorphan); format: in vitro ADME
Procedure: as §5, §6, §7

CYP2C19 = CYP2C19 (Homo sapiens, UniProt P33261); experiment: CYP2C19 inhibition in human liver microsomes (substrate (S)-mephenytoin); format: in vitro ADME
Procedure: as §5, §6, §7

CYP2C9 = CYP2C9 (Homo sapiens, UniProt P11712); experiment: CYP2C9 inhibition in human liver microsomes (substrate diclofenac)
Procedure: as §1, §2
as §3, with “All the structures of inhibitors, substrates, metabolites and internal standards for each CYP enzyme are represented in Table S6 in File S1.” left out
as §4

CYP2B6 = target: T5, CYP2B6 (Homo sapiens, UniProt P20813); experiment: CYP2B6 inhibition in human liver microsomes (substrate bupropion); format: in vitro ADME
T5 sequence (P20813 1-491): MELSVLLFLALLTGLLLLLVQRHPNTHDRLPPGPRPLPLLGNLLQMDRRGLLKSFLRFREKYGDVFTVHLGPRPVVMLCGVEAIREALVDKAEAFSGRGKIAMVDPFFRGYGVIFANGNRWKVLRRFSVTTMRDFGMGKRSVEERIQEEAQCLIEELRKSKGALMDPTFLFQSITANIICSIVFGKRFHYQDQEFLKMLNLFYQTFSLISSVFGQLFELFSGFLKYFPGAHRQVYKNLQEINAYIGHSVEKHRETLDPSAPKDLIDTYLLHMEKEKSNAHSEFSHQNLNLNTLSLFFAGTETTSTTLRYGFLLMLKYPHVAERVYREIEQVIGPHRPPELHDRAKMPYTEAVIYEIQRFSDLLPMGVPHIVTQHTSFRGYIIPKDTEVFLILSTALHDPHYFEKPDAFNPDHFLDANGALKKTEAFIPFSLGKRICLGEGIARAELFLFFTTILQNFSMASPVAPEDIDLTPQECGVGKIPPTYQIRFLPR
Procedure: as §5, §8

[3] = humans, oral 2 g GE; as glucuronide and sulfate conjugates; cited from earlier work
[4] = human liver microsomes, substrate testosterone, gingerols and GE
[5] = human liver microsomes, substrate phenacetin, gingerols and GE
[6] = human liver microsomes, substrate coumarin, gingerols and GE
[7] = human liver microsomes, substrate chlorzoxazone, gingerols and GE
[8] = human liver microsomes, substrate amodiaquine, gingerols and GE
[9] = human liver microsomes, substrate dextromethorphan, gingerols and GE
[10] = human liver microsomes, substrate (S)-mephenytoin, gingerols and GE
[11] = human liver microsomes, substrate diclofenac, gingerols and GE
[12] = human liver microsomes, substrate bupropion, gingerols and GE

CYP2C19, sequence (P33261 whole entry): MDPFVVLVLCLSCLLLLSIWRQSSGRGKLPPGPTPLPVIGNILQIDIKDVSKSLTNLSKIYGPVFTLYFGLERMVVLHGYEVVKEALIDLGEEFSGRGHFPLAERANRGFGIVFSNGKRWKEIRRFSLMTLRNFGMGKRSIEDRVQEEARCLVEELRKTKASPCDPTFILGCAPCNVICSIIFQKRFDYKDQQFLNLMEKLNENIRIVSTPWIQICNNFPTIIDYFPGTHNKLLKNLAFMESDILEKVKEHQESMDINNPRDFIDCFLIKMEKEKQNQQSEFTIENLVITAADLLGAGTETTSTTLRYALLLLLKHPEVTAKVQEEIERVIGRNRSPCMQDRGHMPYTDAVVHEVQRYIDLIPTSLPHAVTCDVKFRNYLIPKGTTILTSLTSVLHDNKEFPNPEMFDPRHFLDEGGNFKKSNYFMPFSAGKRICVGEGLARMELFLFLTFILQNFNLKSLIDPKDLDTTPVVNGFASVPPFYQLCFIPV
CYP2C9, sequence (P11712 whole entry): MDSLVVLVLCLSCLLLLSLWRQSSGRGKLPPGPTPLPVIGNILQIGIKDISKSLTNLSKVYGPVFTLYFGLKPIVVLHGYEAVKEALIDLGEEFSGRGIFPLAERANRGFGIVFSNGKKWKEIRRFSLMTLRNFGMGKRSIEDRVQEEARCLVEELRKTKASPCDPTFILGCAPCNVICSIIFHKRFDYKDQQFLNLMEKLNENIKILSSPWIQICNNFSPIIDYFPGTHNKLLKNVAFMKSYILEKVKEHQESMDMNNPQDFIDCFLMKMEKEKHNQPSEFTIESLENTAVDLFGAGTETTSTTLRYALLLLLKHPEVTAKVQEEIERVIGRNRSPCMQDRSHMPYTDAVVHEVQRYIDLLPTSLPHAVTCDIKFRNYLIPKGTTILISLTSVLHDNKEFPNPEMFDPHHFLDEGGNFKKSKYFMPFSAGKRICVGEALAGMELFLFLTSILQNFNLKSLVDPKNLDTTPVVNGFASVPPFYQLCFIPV
T1 sequence (P08684 2-503): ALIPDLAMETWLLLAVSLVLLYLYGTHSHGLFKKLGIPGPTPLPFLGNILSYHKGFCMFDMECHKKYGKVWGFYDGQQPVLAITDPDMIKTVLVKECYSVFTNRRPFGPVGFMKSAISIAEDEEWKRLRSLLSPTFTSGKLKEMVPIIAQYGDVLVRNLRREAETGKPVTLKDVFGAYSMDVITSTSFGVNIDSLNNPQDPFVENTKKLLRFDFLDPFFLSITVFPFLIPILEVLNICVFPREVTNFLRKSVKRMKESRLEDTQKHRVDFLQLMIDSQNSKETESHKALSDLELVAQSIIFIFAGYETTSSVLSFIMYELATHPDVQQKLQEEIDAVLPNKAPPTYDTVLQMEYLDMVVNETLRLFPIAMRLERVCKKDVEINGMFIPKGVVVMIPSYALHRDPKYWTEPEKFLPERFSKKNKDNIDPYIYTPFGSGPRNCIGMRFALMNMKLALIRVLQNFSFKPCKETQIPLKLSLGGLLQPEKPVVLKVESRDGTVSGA
CYP2D6, sequence (P10635 whole entry): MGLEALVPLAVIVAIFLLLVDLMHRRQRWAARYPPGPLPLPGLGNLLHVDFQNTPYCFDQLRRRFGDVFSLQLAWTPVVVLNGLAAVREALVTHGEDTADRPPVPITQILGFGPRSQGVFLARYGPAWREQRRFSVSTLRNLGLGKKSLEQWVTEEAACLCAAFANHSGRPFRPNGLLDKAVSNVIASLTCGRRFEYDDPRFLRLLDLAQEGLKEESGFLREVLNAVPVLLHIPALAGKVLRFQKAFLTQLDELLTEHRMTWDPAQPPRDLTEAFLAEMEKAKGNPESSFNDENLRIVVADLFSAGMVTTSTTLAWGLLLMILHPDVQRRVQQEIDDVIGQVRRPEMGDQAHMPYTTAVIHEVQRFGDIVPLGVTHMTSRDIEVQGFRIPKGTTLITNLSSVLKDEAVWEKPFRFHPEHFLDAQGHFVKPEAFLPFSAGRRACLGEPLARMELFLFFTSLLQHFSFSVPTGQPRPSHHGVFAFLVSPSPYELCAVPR
CYP2E1, sequence (P05181 whole entry): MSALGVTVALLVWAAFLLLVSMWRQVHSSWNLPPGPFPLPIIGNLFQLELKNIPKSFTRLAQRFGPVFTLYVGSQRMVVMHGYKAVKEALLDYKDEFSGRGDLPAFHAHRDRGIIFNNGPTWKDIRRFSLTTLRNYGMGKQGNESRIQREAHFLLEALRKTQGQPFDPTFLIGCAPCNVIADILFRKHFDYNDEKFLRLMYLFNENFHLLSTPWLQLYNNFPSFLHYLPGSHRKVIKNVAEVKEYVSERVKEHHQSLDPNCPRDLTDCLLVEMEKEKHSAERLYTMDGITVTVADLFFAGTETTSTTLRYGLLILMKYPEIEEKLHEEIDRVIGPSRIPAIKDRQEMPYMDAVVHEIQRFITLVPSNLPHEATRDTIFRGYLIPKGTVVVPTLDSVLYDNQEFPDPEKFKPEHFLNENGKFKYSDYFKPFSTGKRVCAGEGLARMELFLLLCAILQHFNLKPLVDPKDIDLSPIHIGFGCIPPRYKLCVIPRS

Compound | IC50 CYP3A4 (midazolam) (CYP3A4 [1]) [µg/mL] | IC50 CYP3A4 (testosterone) (CYP3A4 [2]; [4]) [µg/mL] | IC50 CYP1A2 (CYP1A2; [5]) [µg/mL] | Intracellular (cell) accumulation (Caco-2 monolayer) | Intracellular accumulation (Caco-2 monolayer; A→B) [%] | Papp (Caco-2 monolayer; A→B) [×10⁻⁶ cm/s] | Intracellular accumulation (Caco-2 monolayer; B→A) [%] | Papp (Caco-2 monolayer; B→A) [×10⁻⁶ cm/s] | IC50 CYP2A6 (CYP2A6; [6]) [µg/mL] | IC50 CYP2E1 (CYP2E1; [7]) [µg/mL] | IC50 CYP2C8 (CYP2C8; [8]) [µg/mL] | IC50 CYP2D6 (CYP2D6; [9]) [µg/mL] | IC50 CYP2C19 (CYP2C19; [10]) [µg/mL] | IC50 CYP2C9 (CYP2C9; [11]) [µg/mL] | IC50 CYP2B6 (CYP2B6; [12]) [µg/mL] | Cmax / circulating concentration in humans [3] [ng/mL] | Efflux Ratio (Caco-2 monolayer) | also measured
CCCCC/C=C/C(=O)CCc1ccc(O)c(OC)c1 [6S, 6-shogaol] | 18 (≈ 65.1 µM) | 2.3 (≈ 8.32 µM) | 0.7 (≈ 2.53 µM) | almost no accumulation | 0 | 0.071 ± 0.014 | 1 | 0.4 ± 0.2 | 23 (≈ 83.2 µM) | 21 (≈ 76 µM) | 0.8 (≈ 2.89 µM) | 24 (≈ 86.8 µM) | 1.1 (≈ 3.98 µM) | 0.9 (≈ 3.26 µM) | 1.6 (≈ 5.79 µM) | 150 ± 120 |  | 
CCCCCCC[C@H](O)CC(=O)CCc1ccc(O)c(OC)c1 [8G, 8-gingerol] | >32 | 2.6 (≈ 8.06 µM) | 8.8 (≈ 27.3 µM) | < 1% | 14 | 5.3 ± 0.8 | 12 | 6.9 ± 0.6 | 19 (≈ 58.9 µM) | 30 (≈ 93 µM) | 0.70 (≈ 2.17 µM) | 24 (≈ 74.4 µM) | 2.6 (≈ 8.06 µM) | 2.8 (≈ 8.68 µM) | 2.6 (≈ 8.06 µM) | 230 ± 160 | 1.3 | 
CCCCCCCCC[C@H](O)CC(=O)CCc1ccc(O)c(OC)c1 [10G, 10-gingerol] | >35 |  |  | 15% | 15 | 0.9 ± 0.7 | 10 | 1.7 ± 0.6 |  |  |  |  |  |  |  | 530 ± 400 | 1.8 | IC50 CYP3A4 (testosterone) (CYP3A4 [2]; microsomes): 2.5 µg/mL (≈ 7.13 µM); IC50 CYP1A2 (CYP1A2; microsomes): > 35 µg/mL; IC50 CYP2A6 (CYP2A6; microsomes): 34 µg/mL (≈ 97 µM); IC50 CYP2E1 (CYP2E1; microsomes): >35 µg/mL; IC50 CYP2C8 (CYP2C8; microsomes): 0.7 µg/mL (≈ 2 µM); IC50 CYP2D6 (CYP2D6; microsomes): 19 µg/mL (≈ 54.2 µM); IC50 CYP2C19 (CYP2C19; microsomes): 2.3 µg/mL (≈ 6.56 µM); IC50 CYP2C9 (CYP2C9; microsomes): 2.6 µg/mL (≈ 7.42 µM); IC50 CYP2B6 (CYP2B6; microsomes): 1.5 µg/mL (≈ 4.28 µM)
